In the supplement of paper PMC13380429:

How the values were obtained:
Details in all cases: 72 h
HepG2 [1] = assay: drug sensitivity score (DSS) for viability; higher = more toxic; extreme values may be limits of the assay
Calu-3 [2] = assay: as above
U2OS [3] = assay: as above
Vero E6 [4] = assay: as above
Caco-2 [5] = assay: as above
HepG2 [6] = assay: cell viability relative to DMSO; higher = less toxic
Calu-3 [7] = assay: as above
U2OS [8] = assay: as above
Vero E6 [9] = assay: as above
Caco-2 [10] = assay: as above
HepG2 [11] = assay: relative viability EC50 (midpoint between 100% and the lowest measured viability); higher = less toxic
Calu-3 [12] = assay: as above
U2OS [13] = assay: as above
Vero E6 [14] = assay: as above
Caco-2 [15] = assay: as above

Row | Structure (SMILES) | drug sensitivity score (HepG2 [1]) | drug sensitivity score (Calu-3 [2]) | drug sensitivity score (U2OS [3]) | drug sensitivity score (Vero E6 [4]) | drug sensitivity score (Caco-2 [5]) | cell viability (HepG2 [6]; 1 nM) | cell viability (HepG2 [6]; 10 nM) | cell viability (HepG2 [6]; 100 nM) | cell viability (HepG2 [6]; 1000 nM) | cell viability (HepG2 [6]; 10000 nM) | cell viability (Calu-3 [7]; 1 nM) | cell viability (Calu-3 [7]; 10 nM) | cell viability (Calu-3 [7]; 100 nM) | cell viability (Calu-3 [7]; 1000 nM) | cell viability (Calu-3 [7]; 10000 nM) | cell viability (U2OS [8]; 1 nM) | cell viability (U2OS [8]; 10 nM) | cell viability (U2OS [8]; 100 nM) | cell viability (U2OS [8]; 1000 nM) | cell viability (U2OS [8]; 10000 nM) | cell viability (Vero E6 [9]; 1 nM) | cell viability (Vero E6 [9]; 10 nM) | cell viability (Vero E6 [9]; 100 nM) | cell viability (Vero E6 [9]; 1000 nM) | cell viability (Vero E6 [9]; 10000 nM) | cell viability (Caco-2 [10]; 1 nM) | cell viability (Caco-2 [10]; 10 nM) | cell viability (Caco-2 [10]; 100 nM) | cell viability (Caco-2 [10]; 1000 nM) | cell viability (Caco-2 [10]; 10000 nM) | relative viability EC50 (HepG2 [11]) | relative viability EC50 (Calu-3 [12]) | relative viability EC50 (U2OS [13]) | relative viability EC50 (Vero E6 [14]) | relative viability EC50 (Caco-2 [15])
1 | Cn1cnc2c(NCc3ccccc3)nc(NCCO)nc21 [olomoucine] | 0 | 0 | 0 | 0 | 0 | 106% | 106% | 96.4% | 112% | 114% | 102% | 97.9% | 96% | 99.9% | 105% | 103% | 101% | 103% | 96.9% | 108% | 93% | 98.1% | 96% | 99.7% | 104% | 97.5% | 93.3% | 92.5% | 98.7% | 106% | > 10 µM | > 10 µM | > 10 µM | > 10 µM | > 10 µM
2 | COc1ccc2ccc(=O)oc2c1CC=C(C)C [osthol] | 0 | 0 | 0 | 0 | 0 | 96.5% | 105% | 98.8% | 106% | 100% | 86.6% | 98.2% | 104% | 114% | 108% | 92.9% | 100% | 93.3% | 99% | 102% | 95.1% | 94.4% | 95.9% | 93.2% | 99.2% | 94.3% | 95.1% | 94% | 100% | 101% | > 10 µM | > 10 µM | > 10 µM | > 10 µM | > 10 µM
3 | CC[C@H](C)[C@@H]1NC(=O)[C@H](Cc2ccc(O)cc2)NC(=O)[C@@H](N)CSSC[C@@H](C(=O)N2CCC[C@H]2C(=O)N[C@@H](CC(C)C)C(=O)NCC(N)=O)NC(=O)[C@H](CC(N)=O)NC(=O)[C@H](CCC(N)=O)NC1=O [oxytocin] | 0 | 0 | 0 | 0 | 0 | 114% | 96.1% | 105% | 87.7% | 99.2% | 92% | 93.8% | 98.9% | 103% | 97% | 98.2% | 99% | 98.3% | 98.5% | 95.7% | 106% | 112% | 98.7% | 105% | 99.2% | 95.5% | 122% | 82.2% | 100% | 100% | > 10 µM | > 10 µM | > 10 µM | > 10 µM | > 10 µM
4 | CN1C(=O)C(N2CCCCC2)S/C1=C\C(=O)O (stereo not given) [ozolinone] | 0 | 0 | 0 | 0 | 0 | 89.5% | 107% | 104% | 87.1% | 105% | 102% | 93.9% | 94.1% | 93.5% | 95% | 95.5% | 97.5% | 102% | 99.6% | 100% | 97.1% | 103% | 97% | 102% | 117% | 113% | 96.7% | 92.1% | 105% | 114% | > 10 µM | > 10 µM | > 10 µM | > 10 µM | > 10 µM
5 | C#CCN(C)Cc1ccccc1 [pargyline] | 0 | 0 | 0 | 0 | 0 | 98.7% | 96.2% | 109% | 89.7% | 102% | 93.5% | 97.4% | 95.4% | 89.3% | 102% | 99.2% | 101% | 99.9% | 102% | 103% | 96.4% | 96.3% | 92.7% | 93.1% | 107% | 96% | 93% | 96.3% | 98.6% | 103% | > 10 µM | > 10 µM | > 10 µM | > 10 µM | > 10 µM
6 | FC(F)(F)C(F)(F)C(F)(F)C(F)(F)C(F)(F)C(F)(F)C(F)(F)C(F)(F)Br [perflubron] | 0 | 0 | 0 | 0 | 0 | 104% | 102% | 99.9% | 96.4% | 105% | 87.9% | 108% | 98.1% | 102% | 93.4% | 98.1% | 100% | 94.1% | 104% | 97.1% | 109% | 101% | 102% | 92.4% | 96.7% | 97% | 98.9% | 91.8% | 103% | 91.2% | > 10 µM | > 10 µM | > 10 µM | > 10 µM | > 10 µM
7 | Nc1ccc(/N=N/c2ccccc2)c(N)n1 [phenazopyridine] | 0 | 0 | 0 | 0.3 | 0 | 91.1% | 91.8% | 105% | 89.4% | 100% | 91.9% | 102% | 88.1% | 99.1% | 95.8% | 94% | 98.4% | 95.7% | 99.2% | 103% | 109% | 88.6% | 102% | 102% | 82.7% | 85.4% | 102% | 97% | 99.8% | 94% | > 10 µM | > 10 µM | > 10 µM | > 10 µM | > 10 µM
8 | CN1C(CSCC(F)(F)F)Nc2cc(Cl)c(S(N)(=O)=O)cc2S1(=O)=O (stereo not given) [polythiazide] | 0 | 0 | 0 | 0 | 0 | 93.7% | 110% | 99.6% | 103% | 106% | 95.7% | 98.5% | 107% | 101% | 109% | 98.4% | 97.5% | 104% | 96.2% | 100% | 91.7% | 98.8% | 86.6% | 96.8% | 108% | 88.1% | 90.5% | 95.2% | 94.9% | 93% | > 10 µM | > 10 µM | > 10 µM | > 10 µM | > 10 µM
9 | CCCCOc1ccc(OCCCN2CCOCC2)cc1 [pramoxine] | 0 | 0 | 0 | 0 | 0 | 97.1% | 98.3% | 98.1% | 94.7% | 98.9% | 104% | 99.1% | 87.1% | 95.1% | 102% | 105% | 105% | 104% | 102% | 99.3% | 103% | 97.3% | 98.8% | 102% | 103% | 105% | 109% | 97.8% | 95.8% | 98% | > 10 µM | > 10 µM | > 10 µM | > 10 µM | > 10 µM
10 | N#Cc1c[nH]c2c(C(=O)N3CCN(CCc4ccc(F)cc4)CC3)cccc12 [pruvanserin] | 0 | 0 | 0 | 0 | 0 | 103% | 110% | 117% | 98.1% | 99.3% | 91.8% | 112% | 91.4% | 112% | 101% | 94% | 98.4% | 92.5% | 104% | 100% | 105% | 86.8% | 102% | 95.2% | 98.4% | 94.9% | 95.3% | 96.9% | 98.1% | 95.7% | > 10 µM | > 10 µM | > 10 µM | > 10 µM | > 10 µM
11 | O=c1c(-c2ccc(O)cc2)coc2c([C@@H]3O[C@H](CO)[C@@H](O)[C@H](O)[C@H]3O)c(O)ccc12 [puerarin] | 0 | 0 | 0 | 0 | 0 | 94.4% | 102% | 94.8% | 107% | 98.2% | 89.3% | 92.3% | 97.5% | 89.6% | 95.6% | 99.7% | 95.2% | 96% | 94.6% | 100% | 99.7% | 99.5% | 99.9% | 107% | 103% | 98.4% | 99.8% | 96% | 98% | 101% | > 10 µM | > 10 µM | > 10 µM | > 10 µM | > 10 µM
12 | CCCN1CCC[C@@H]2Cc3nc(N)ncc3C[C@H]21 [quinelorane] | 0 | 0 | 0 | 0 | 0 | 95.9% | 94.1% | 97.6% | 91.8% | 96.4% | 102% | 99% | 93.2% | 103% | 105% | 103% | 105% | 102% | 97.1% | 98.5% | 102% | 99.6% | 101% | 93.2% | 99% | 101% | 92.9% | 98.6% | 85.7% | 104% | > 10 µM | > 10 µM | > 10 µM | > 10 µM | > 10 µM
